Assay results taken from publication PMC6937593, “Anti-metastatic Inhibitors of Lysyl Oxidase (LOX): Design and Structure–Activity Relationships” (Journal of Medicinal Chemistry, 2019).
Values joined by “and” are separate entries in the source; they are usually repeats but may differ in a detail not shown here. Identical values can stand only once. Counter-ions that a name gives are not always drawn. Like-named read-outs stand apart in the source and are kept apart here. Blank lines part the entries; values can stand above or below the compound they belong to.

Experiments:
MLM stability assay = assay type: in vitro ADME, mouse; conditions: percentage of compound remaining after 30 min; 10 μM
LOX = target: T1, LOX (Sus scrofa, UniProt P45845); assay: LOX enzyme activity assay (HRP-coupled fluorescent, cadaverine substrate); assay type: biochemical, pig; conditions: for fold more potent than HTS hit 2a (LOX IC50): vs 2a;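 as to all read-outs here: LOX isolated from porcine skin, nine-point dilution series starting at 100 µM, 20 min preincubation with enzyme, BAPN serving as positive control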
T1 construct: LOX enzyme was extracted from pig skin by the method of Shackleton and Hulmes; from tissue; host or cells: pig skin
T1 sequence (P45845 1-249): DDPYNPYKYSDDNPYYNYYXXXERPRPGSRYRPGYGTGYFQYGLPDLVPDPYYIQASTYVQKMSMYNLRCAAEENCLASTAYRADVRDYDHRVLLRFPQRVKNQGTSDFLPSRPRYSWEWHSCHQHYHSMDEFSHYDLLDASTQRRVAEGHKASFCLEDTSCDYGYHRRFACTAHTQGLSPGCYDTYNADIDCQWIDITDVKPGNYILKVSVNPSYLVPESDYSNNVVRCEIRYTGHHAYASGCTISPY

DAO = target: T2, DAO (Sus scrofa, UniProt Q9TRC7); assay: biochemical; conditions: n = 2 individual values
T2 construct: purchased Sigma
T2 sequence (Q9TRC7 25-755): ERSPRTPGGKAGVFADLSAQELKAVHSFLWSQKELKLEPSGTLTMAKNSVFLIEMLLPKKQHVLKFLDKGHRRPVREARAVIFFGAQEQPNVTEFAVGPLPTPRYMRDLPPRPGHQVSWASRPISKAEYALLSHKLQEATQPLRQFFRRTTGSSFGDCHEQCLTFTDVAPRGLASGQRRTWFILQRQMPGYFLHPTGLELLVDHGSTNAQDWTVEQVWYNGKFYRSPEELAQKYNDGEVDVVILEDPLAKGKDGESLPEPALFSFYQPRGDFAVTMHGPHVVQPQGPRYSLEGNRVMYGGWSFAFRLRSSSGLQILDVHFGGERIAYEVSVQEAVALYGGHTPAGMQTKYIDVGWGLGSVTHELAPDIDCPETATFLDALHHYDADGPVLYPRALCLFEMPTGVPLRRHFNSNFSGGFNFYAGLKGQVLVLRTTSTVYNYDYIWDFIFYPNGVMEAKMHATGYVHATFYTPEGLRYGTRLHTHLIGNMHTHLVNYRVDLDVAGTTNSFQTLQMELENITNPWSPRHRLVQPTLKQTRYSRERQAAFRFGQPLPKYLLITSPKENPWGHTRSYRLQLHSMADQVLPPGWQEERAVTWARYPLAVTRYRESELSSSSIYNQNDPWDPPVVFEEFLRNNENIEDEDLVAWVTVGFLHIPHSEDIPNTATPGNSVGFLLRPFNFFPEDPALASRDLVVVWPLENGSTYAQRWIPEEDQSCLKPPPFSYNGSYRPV

In vivo PK in mice = assay: In vivo PK in mice; set-up: species or system mouse; conditions: mouse plasma, single oral gavage dose 50 mg/kg
[1] = n ≥ 2, n = 2: individual values, n > 2: geometric mean [95% CI], 20 min preincubation, read-out: LOX IC50

Structure (SMILES): CS(=O)(=O)N1CCCN(S(=O)(=O)c2ccc(CN)s2)CC1 [2m, (5-(4-(Methylsulfonyl)-1,4-diazepan-1-ylsulfonyl)thiophen-2-yl)methanamine]
MLM stability (%) (MLM stability assay): 37% | IC50 (LOX; [1]): 0.93 µM

Structure (SMILES): CS(=O)(=O)c1cc(-c2ccccc2)cc(S(=O)(=O)c2ccc(CN)s2)c1 [9f]
IC50 (DAO): > 100 µM

Structure (SMILES): NCc1ccc(S(=O)(=O)N2CCCc3ccccc32)s1 [2h, (5-(3,4-Dihydroquinolin-1(2H)-ylsulfonyl)thiophen-2-yl)methanamine]
IC50 (LOX; [1]): 2.5 µM and 2.7 µM

Structure (SMILES): NCc1ccc(S(=O)(=O)NCc2ccccc2)s1 [4c, 5-(Aminomethyl)-N-benzylthiophene-2-sulfonamide]
IC50 (LOX; [1]): 15 µM

Structure (SMILES): CN(C)S(=O)(=O)c1ccc(CN)s1 [2b, 5-(Aminomethyl)-N,N-dimethylthiophene-2-sulfonamide]
IC50 (LOX; [1]): 70 µM and 72 µM

Structure (SMILES): Cl.Cl.NCc1ccc(S(=O)(=O)N2CCCNCC2)s1 [2j, (5-(1,4-Diazepan-1-ylsulfonyl)thiophen-2-yl)methanamine Dihydrochloride]
IC50 (LOX; [1]): 9.4 µM and 12.7 µM | fold more potent than HTS hit 2a (LOX IC50) (LOX): ~2 fold

Structure (SMILES): NCc1ccc(S(=O)(=O)N2CCC[C@H]2C(N)=O)s1 [2d, (S)-1-(5-(Aminomethyl)thiophen-2-ylsulfonyl)pyrrolidine-2-carboxamide]
IC50 (LOX; [1]): 11 µM and 13 µM

Structure (SMILES): NCc1ccc(Sc2ccccc2)s1 [4b, (5-(Phenylthio)thiophen-2-yl)methanamine Hydrochloride]
IC50 (LOX; [1]): 14 µM and 27 µM

Structure (SMILES): NCc1ccc(C(=O)NCc2ccccc2)s1 [4d, 5-(Aminomethyl)-N-benzylthiophene-2-carboxamide]
IC50 (LOX; [1]): 20 µM and 25 µM

Structure (SMILES): NCc1ccc(S(=O)(=O)c2ccc3ccccc3c2)s1 [3g, (5-(Naphthalen-2-ylsulfonyl)thiophen-2-yl)methanamine]
MLM stability (%) (MLM stability assay): 100% | AUC(PO) (In vivo PK in mice): 4200 nM·h | Cmax (In vivo PK in mice): 15 µM

Structure (SMILES): NCc1ccc(S(=O)(=O)N2CCC[C@H]2CO)s1 [2e, (S)-(1-(5-(Aminomethyl)thiophen-2-ylsulfonyl)pyrrolidin-2-yl)methanol]
IC50 (LOX; [1]): 3.1 µM and 3.3 µM

Structure (SMILES): NCc1ccc(S(=O)(=O)N2CCOCC2)s1 [2i, (5-(Morpholinosulfonyl)thiophen-2-yl)methanamine]
IC50 (LOX; [1]): 20 µM and 25 µM

Structure (SMILES): NCc1ccc(S(=O)(=O)N2CCCC2c2ccccc2)s1 (stereo not shown) [2f, (5-(2-Phenylpyrrolidin-1-ylsulfonyl)thiophen-2-yl)methanamine]
IC50 (LOX; [1]): 3.8 µM

Structure (SMILES): NCc1ccc(S(=O)(=O)N2CCCCC2)s1 [2a, (5-(Piperidin-1-ylsulfonyl)thiophen-2-yl)methanamine]
IC50 (LOX; high-throughput screen hit, read-out: mean IC50 (LOX, HTS hit)): 19 µM | IC50 (LOX; [1]): 17 µM and 21 µM

Structure (SMILES): NCc1ccc(S(=O)(=O)N2CCc3ccccc32)s1 [2g, (5-(Indolin-1-ylsulfonyl)thiophen-2-yl)methanamine]
IC50 (LOX; [1]): 1.9 µM | fold more potent than HTS hit 2a (LOX IC50) (LOX): ~10 fold

Structure (SMILES): CCNC(=O)N1CCCN(S(=O)(=O)c2ccc(CN)s2)CC1 [2l, 4-(5-(Aminomethyl)thiophen-2-ylsulfonyl)-N-ethyl-1,4-diazepane-1-carboxamide]
IC50 (LOX; [1]): 2.1 µM

Structure (SMILES): CN1CCCN(S(=O)(=O)c2ccc(CN)s2)CC1 [2k, (5-(4-Methyl-1,4-diazepan-1-ylsulfonyl)thiophen-2-yl)methanamine]
IC50 (LOX; [1]): 3.1 µM

Structure (SMILES): CS(=O)(=O)c1ccc(-c2ccc(CN)s2)cc1 [4e, (5-(4-(Methylsulfonyl)phenyl)thiophen-2-yl)methanamine Hydrochloride]
IC50 (LOX; [1]): 13 µM

Structure (SMILES): CC(C)(C)Oc1cc(S(C)(=O)=O)cc(S(=O)(=O)c2ccc(CN)s2)c1 [9b, (5-((3-(tert-Butoxy)-5-(methylsulfonyl)phenyl)sulfonyl)thiophen-2-yl)methanamine]
MLM stability (%) (MLM stability assay): 67% | AUC(PO) (In vivo PK in mice): 2300 nM·h | Cmax (In vivo PK in mice): 6.3 µM

Structure (SMILES): CS(=O)(=O)c1ccc(S(=O)(=O)c2ccc(CN)s2)cc1 [3i, (5-(4-(Methylsulfonyl)phenylsulfonyl)thiophen-2-yl)methanamine]
MLM stability (%) (MLM stability assay): 67%

Structure (SMILES): CCNS(=O)(=O)c1ccc(CN)s1 [2c, 5-(Aminomethyl)-N-ethylthiophene-2-sulfonamide]
IC50 (LOX; [1]): 27 µM and 31 µM

Continued, values first:

IC50 (LOX; [1]): > 100 µM
Structure (SMILES): N=C(N)c1ccc(S(=O)(=O)c2ccccc2)s1 [6d, 5-(Phenylsulfonyl)thiophene-2-carboximidamide Hydrochloride]

MLM stability (%) (MLM stability assay): 68% | AUC(PO) (In vivo PK in mice): 6500 nM·h | Cmax (In vivo PK in mice): 16 µM
Structure (SMILES): CC(C)(C)c1cc(S(C)(=O)=O)cc(S(=O)(=O)c2ccc(CN)s2)c1 [9a, (5-((3-(tert-Butyl)-5-(methylsulfonyl)phenyl)sulfonyl)thiophen-2-yl)methanamine]

MLM stability (%) (MLM stability assay): 41% | AUC(PO) (In vivo PK in mice): 1400 nM·h | Cmax (In vivo PK in mice): 1.6 µM
Structure (SMILES): CS(=O)(=O)c1ccc(S(=O)(=O)c2ccc(CN)s2)cc1-c1ccccc1 [9k, (5-((6-(Methylsulfonyl)-[1,1′-biphenyl]-3-yl)sulfonyl)thiophen-2-yl)methanamine]

MLM stability (%) (MLM stability assay): 90% | AUC(PO) (In vivo PK in mice): 2800 nM·h | Cmax (In vivo PK in mice): 9.6 µM
Structure (SMILES): Cl.Cl.Cn1cc(-c2cc(S(=O)(=O)c3ccc(CN)s3)ccc2S(C)(=O)=O)cn1 [9j, (5-((3-(1-Methyl-1H-pyrazol-4-yl)-4-(methylsulfonyl)phenyl)sulfonyl)thiophen-2-yl)methanamine Dihydrochloride]

MLM stability (%) (MLM stability assay): 63% | AUC(PO) (In vivo PK in mice): 460 nM·h | Cmax (In vivo PK in mice): 1.5 µM
Structure (SMILES): NCc1ccc(S(=O)(=O)c2cccc(S(=O)(=O)N3CCC[C@H]3CO)c2)s1 [8e, (S)-(1-((3-((5-(Aminomethyl)thiophen-2-yl)sulfonyl)phenyl)sulfonyl)pyrrolidin-2-yl)methanol]

IC50 (LOX; [1]): 40 µM and 45 µM
Structure (SMILES): NCc1ccc(C(=O)NCc2ccccc2)o1 [5e, 5-(Aminomethyl)-N-benzylfuran-2-carboxamide]

IC50 (LOX; [1]): > 100 µM
Structure (SMILES): O=S(=O)(c1ccc2ccccc2c1)c1ccc(/C=N/O)s1 [6f, 5-(Naphthalen-2-ylsulfonyl)thiophene-2-carbaldehyde Oxime]

IC50 (LOX; [1]): > 100 µM
Structure (SMILES): CNCc1ccc(S(=O)(=O)c2ccccc2)s1 [6a, N-Methyl-1-(5-(phenylsulfonyl)thiophen-2-yl)methanamine Hydrochloride]

IC50 (LOX; [1]): 12 µM and 13 µM
Structure (SMILES): Cc1cc(CN)sc1S(=O)(=O)N1CCc2ccccc21 [5f, (5-(Indolin-1-ylsulfonyl)-4-methylthiophen-2-yl)methanamine]

LOX inhibition (in words) (LOX): no inhibitory activity | IC50 (LOX; [1]): > 100 µM
Structure (SMILES): NCc1cscc1S(=O)(=O)c1ccc2ccccc2c1 [7b, (4-(Naphthalen-2-ylsulfonyl)thiophen-3-yl)methanamine]

IC50 (LOX; [1]): > 100 µM
Structure (SMILES): N#Cc1ccc(S(=O)(=O)c2ccccc2)s1 [6c, 5-(Phenylsulfonyl)thiophene-2-carbonitrile]

IC50 (LOX; [1]): > 100 µM
Structure (SMILES): CC(N)c1ccc(S(=O)(=O)c2ccccc2)s1 (stereo not shown) [6b, 1-(5-(Phenylsulfonyl)thiophen-2-yl)ethanamine]

LOX inhibition (in words) (LOX): no inhibitory activity | IC50 (LOX; [1]): > 100 µM
Structure (SMILES): NCc1sccc1S(=O)(=O)c1ccc2ccccc2c1 [7a, (3-(Naphthalen-2-ylsulfonyl)thiophen-2-yl)methanamine]

MLM stability (%) (MLM stability assay): 91% | AUC(PO) (In vivo PK in mice): 360 nM·h | Cmax (In vivo PK in mice): 0.38 µM
Structure (SMILES): CC(=O)NCCS(=O)(=O)c1ccc(S(=O)(=O)c2ccc(CN)s2)cc1.Cl [8j, N-(2-((4-((5-(Aminomethyl)thiophen-2-yl)sulfonyl)phenyl)sulfonyl)ethyl)-acetamide Hydrochloride]

IC50 (LOX; [1]): > 100 µM
Structure (SMILES): NC(=O)c1ccc(S(=O)(=O)c2ccccc2)s1 [6e, 5-(Phenylsulfonyl)thiophene-2-carboxamide]

MLM stability (%) (MLM stability assay): 59% | AUC(PO) (In vivo PK in mice): 220 nM·h | Cmax (In vivo PK in mice): 0.83 µM
Structure (SMILES): NCc1ccc(S(=O)(=O)c2cccc(S(=O)(=O)N3CCCC3)c2)s1 [8d, (5-((3-(Pyrrolidin-1-ylsulfonyl)phenyl)sulfonyl)thiophen-2-yl)methanamine]

IC50 (LOX; [1]): 25 µM | fold weaker than aminomethylenethiophene counterpart 5b (LOX) (LOX; vs 5b): ~10 fold
Structure (SMILES): Cl.Cl.NCc1ccc(S(=O)(=O)Cc2ccccc2)nc1 [5a, (6-(Benzylsulfonyl)pyridin-3-yl)methanamine Dihydrochloride]
